According to the NIST ThermoML archive (doi:10.1021/je200903m):

Details: Liquid, isochoric method

CCCCn1cc[n+](C)c1.O=S(=O)([O-])C(F)(F)F [1-butyl-3-methylimidazolium trifluoromethanesulfonate]
Details	mass density [kg/m3]
290.5 K, 40403 kPa	1326.13
290.51 K, 20585 kPa	1315.76
290.53 K, 10565 kPa	1310.84
290.69 K, 30827 kPa	1321.18
291.26 K, 1592.1 kPa	1304.62
298.15 K, 9757.7 kPa	1303.63
298.15 K, 19969 kPa	1309.73
298.15 K, 20141 kPa	1309.72
298.15 K, 30285 kPa	1314.63
298.15 K, 50367 kPa	1324.98
298.16 K, 9701.7 kPa	1303.63
298.16 K, 19936 kPa	1309.73
298.16 K, 30053 kPa	1314.64
298.16 K, 40303 kPa	1320.08
298.16 K, 40410 kPa	1320.08
298.17 K, 10081 kPa	1303.62
298.17 K, 10432 kPa	1304.22
298.17 K, 50464 kPa	1324.97
299.03 K, 2480.8 kPa	1298.81
305.41 K, 59674 kPa	1323.93
305.45 K, 10034 kPa	1297.93
305.45 K, 19292 kPa	1303.2
305.9 K, 39945 kPa	1313.54
306 K, 29921 kPa	1308.61
306 K, 50404 kPa	1318.95
306.05 K, 19559 kPa	1302.52
307.17 K, 1752 kPa	1291.55
313.41 K, 59599 kPa	1317.95
313.93 K, 49845 kPa	1312.46
314.21 K, 9839.1 kPa	1290.64
314.21 K, 20109 kPa	1296.78
314.21 K, 39744 kPa	1307.53
314.32 K, 29477 kPa	1301.43
314.85 K, 831 kPa	1284.6
321.66 K, 59111 kPa	1311.47
321.82 K, 29288 kPa	1295.81
323.07 K, 39773 kPa	1300.33
323.16 K, 50452 kPa	1306.39
323.18 K, 10082 kPa	1283.58
323.2 K, 20072 kPa	1289.53
323.4 K, 1581.8 kPa	1277.54
330.39 K, 28233 kPa	1288.68
330.5 K, 39240 kPa	1294.79
331.3 K, 241.1 kPa	1270.51
331.38 K, 10182 kPa	1276.63
331.38 K, 19050 kPa	1282.64
331.38 K, 59986 kPa	1305.41
331.78 K, 49813 kPa	1299.3
339.84 K, 49769 kPa	1293.74
340.71 K, 39738 kPa	1287.53
340.73 K, 10118 kPa	1269.5
340.75 K, 20227 kPa	1275.61
340.93 K, 60046 kPa	1298.28
341.39 K, 30102 kPa	1281.54
341.68 K, 1330.2 kPa	1262.9
347.88 K, 58421 kPa	1292.89
350.01 K, 30185 kPa	1274.67
350.14 K, 9957.7 kPa	1262.06
350.15 K, 19909 kPa	1268.55
350.31 K, 39671 kPa	1280.63
350.38 K, 50208 kPa	1286.54

CCn1cc[n+](C)c1.F[B-](F)(F)F [1-ethyl-3-methylimidazolium tetrafluoroborate]
Details	mass density [kg/m3]
284.73 K, 40082 kPa	1309.71
284.74 K, 29331 kPa	1305.75
285.12 K, 9993.5 kPa	1296.4
285.2 K, 19389 kPa	1300.88
285.8 K, 1326.9 kPa	1292.98
290.95 K, 50018 kPa	1309.1
291.3 K, 39987 kPa	1305.11
291.58 K, 20094 kPa	1295.79
291.59 K, 10267 kPa	1292.43
292 K, 30197 kPa	1300.22
292.03 K, 1055.4 kPa	1288.31
298.14 K, 10219 kPa	1287.74
298.14 K, 19834 kPa	1291.82
298.15 K, 20203 kPa	1291.81
298.15 K, 29284 kPa	1295.18
298.15 K, 39774 kPa	1299.63
298.15 K, 39935 kPa	1299.63
298.15 K, 50710 kPa	1304.44
298.15 K, 61191 kPa	1308.4
298.16 K, 30299 kPa	1295.16
298.63 K, 1139.7 kPa	1283.3
304.09 K, 59595 kPa	1303.87
304.39 K, 39527 kPa	1294.57
304.61 K, 49734 kPa	1299.01
304.62 K, 29983 kPa	1291.2
304.69 K, 10037 kPa	1282.74
304.69 K, 19721 kPa	1287.13
305.23 K, 1194.1 kPa	1278.54
311.4 K, 39938 kPa	1290.56
311.49 K, 30054 kPa	1286.49
311.51 K, 60021 kPa	1298.35
311.55 K, 19542 kPa	1282.12
311.56 K, 10293 kPa	1277.95
311.72 K, 50382 kPa	1293.87
312.05 K, 1111.5 kPa	1273.28
318.36 K, 19918 kPa	1277.33
318.37 K, 9976 kPa	1272.71
318.37 K, 50094 kPa	1289.9
318.4 K, 39958 kPa	1285.84
318.49 K, 30004 kPa	1281.46
318.57 K, 60242 kPa	1293.23
319.24 K, 1155.6 kPa	1268
325.39 K, 60094 kPa	1289.24
325.5 K, 50050 kPa	1285.18
325.59 K, 30106 kPa	1276.66
325.59 K, 39966 kPa	1280.8
325.65 K, 9902.1 kPa	1267.42
325.66 K, 18720 kPa	1272.06
326.26 K, 1166.5 kPa	1262.28
332.57 K, 59788 kPa	1284.52
332.79 K, 39915 kPa	1275.99
332.85 K, 50074 kPa	1280.13
332.87 K, 29859 kPa	1271.38
332.99 K, 10159 kPa	1261.67
333.07 K, 19960 kPa	1266.75
333.62 K, 1252.9 kPa	1257.28
340.28 K, 59745 kPa	1279.45
340.35 K, 9969.2 kPa	1256.69
340.37 K, 19698 kPa	1261.02
340.39 K, 50227 kPa	1275.3
340.42 K, 39835 kPa	1270.69
340.55 K, 29899 kPa	1266.08
341.04 K, 1357.1 kPa	1251.73
347.77 K, 59854 kPa	1274.63
347.97 K, 10024 kPa	1251.12
348.02 K, 29830 kPa	1260.33
348.04 K, 19820 kPa	1256
348.15 K, 49790 kPa	1269.99
348.24 K, 39938 kPa	1265.38
355.85 K, 20035 kPa	1250.42
355.86 K, 29675 kPa	1255.31
356.01 K, 40147 kPa	1259.61
356.02 K, 49918 kPa	1264.68
356.4 K, 59860 kPa	1269.25
